Experiment [1] concerns microtubules (tubulin polymer). Put plainly: Radiolabeled ligand binding assays. The conditions noted are these: for potency relative to 1 in inhibiting the binding of radiolabeled paclitaxel to microtubules: relative to dictyostatin 1. The protocol: The abilities of test agents to inhibit the binding of radiolabeled forms of the microtubule stabilizers paclitaxel, discodermolide and epothilone B from tubulin polymer were determined.
[^3H]Paclitaxel, [^3H]discodermolide and [^14C]epothilone B solutions were prepared as 125 μM stock solutions in 50% DMSO. Radiolabeled compound (final concentration, 4.0 μM) and test agents at final concentrations noted in the text and tables were mixed in 50 μL of 4:1 (v/v) 0.75 M aqueous MSG/DMSO and warmed to 37° C. Meanwhile, a reaction mixture containing 0.75 M MSG, 2.5 μM tubulin, and 25 μM ddGTP was prepared and incubated at 37° C. for 30 min to form microtubuless. A 200 μL aliquot of the microtubule mixture was added to the drug mixtures, and incubation continued for 30 min at 37° C. Reaction mixtures were centrifuged in an Eppendorf 5417C centrifuge at 14,000 rpm for 20 min at room temperature. Radiolabel in the supernatants (100 μL) was determined by scintillation spectrometry.

A further experiment concerns HeLa cells. Description: Multiparameter fluorescence high information content analysis of cellular effects. The arrangement: unit not given here. Format: cell-based. The following applies: 24 h treatment; for Minimum detectable cellular change, Nuclear condensation: Hoechst 33342. The protocol:
HeLa cells were plated on collagen-coated 384-well microtiter plates, allowed to attach, then treated for 24 h with test agents. Test agent concentrations began at 1 μM, and two-fold dilutions were made to levels below 1 nM. After the treatment period, the cells were fixed with formalin and their chromatin stained with Hoechst 33342. Cells were permeabilized and treated with primary antibodies for α-tubulin and phosphohistone H3, and then with fluorophore-labeled secondary antibodies. The three fluorescent channels were then examined on an ArrayScan II, which gives quantitative pixel distribution and density information in each channel on a per cell basis.
HeLa cells growing at log phase were trypsinized and plated in 40 μL at a density of 7,000-8,000 cells per well in calf skin collagen I-coated 384-well plates (Falcon #3962; Fisher Scientific). Cells were exposed to test agents or 0.5% DMSO within 2-8 h of plating. Concentrated DMSO stock solutions of all test agents were diluted into solutions of HBSS medium plus 10% FBS and added to the microplate wells (10 μL per well), using an automated liquid handling system (Biomek® 2000; Beckman-Coulter, Inc.) to provide a serial 2-fold dilution of each test agent. The cells were incubated in the presence of test agents for 24 h. At the end of the incubation, the medium was removed and replaced with HBSS containing 4% formaldehyde and 10 μg/mL Hoechst 33342 (25 μL/well) to fix the cells and fluorescently label their chromatin. After incubation at room temperature for 20-30 min, the solution was removed from each well and replaced with HBSS (100 μL/well). Further reagent additions were made to the microplates using the Biomek 2000. After removing the HBSS from each well, cells were permeabilized for 5 min at room temperature with 0.5% (w/w) Triton X-100 in HBSS (10 μL/well). This step extracts a fraction of the soluble cellular components, including soluble tubulin. The wells were washed with HBSS (100 μL/well), followed by addition of a primary antibody solution containing mouse anti-α-tubulin (1:3000) and rabbit anti-phosphohistone H3 (1:500) in HBSS (10 μL/well). After 1 h at room temperature, the wells were washed with HBSS as above, followed by the addition of a secondary antibody solution containing fluorescein-5-isothiocyanate (FITC)-labeled donkey anti-mouse (1:300) and Cy3-labeled donkey anti-rabbit (1:300) antibodies diluted in HBSS (10 μL/well). After 1 h at room temperature, the wells were washed as above, and HBSS was added (100 μL/well). The plates were placed in an ArrayScan® HCS Reader with the Target Activation BioApplication Software coupled to Cellomics® Store and the vHCS™ Discovery Toolbox (Cellomics, Inc.) to analyze images. Briefly, the instrument was used to scan multiple optical fields, each with multiparameter fluorescence, within a subset of the wells of the 384-well microplate. The BioApplication software produced multiple numerical feature values, such as subcellular object intensities, shapes, and location for each cell within an optical field. […] A nuclear mask was generated from Hoechst 33342-stained nuclei, and object identification thresholds and shape parameters were set such that the algorithm identified over 90% of the nuclei in each field. Objects that touched each other or the edge of the image were excluded from the analysis. Tubulin mass was defined as the average green (FITC) pixel intensity in an area defined by the Hoechst-defined nuclear mask. This cytoplasmic area around the nucleus contains cytoskeletal components is a region from which sensitive measurements of cytoplasmic characteristics can be made.

Experiment [2] concerns 1A9/Ptx10 (Phe270 −> Val) β-tubulin mutant cells. Put plainly: Antiproliferative assay (GI50, MTS), paclitaxel-resistant clone. It counts as cell-based, human. The conditions noted are these: for fold-resistance: 1A9/Ptx10 versus parental 1A9. The protocol:
(§1) Representative analogs were examined for their antiproliferative activities against human ovarian carcinoma 1A9 cells and their paclitaxel-resistant mutants, 1A9/Ptx10 and 1A9/Ptx22.
(§2) The effects of dictyostatin and its analogs on growth inhibition of parental ([…]) and paclitaxel-resistant (1A9/Ptx10 and Ptx22) ovarian adenocarcinoma cell lines were evaluated following the antiproliferative assay protocol as described earlier (Minguez et al., 2003; Choy et al., 2003; Lazo et al., 2001). Cells were maintained in RPMI medium with 10% FBS in it, plated in tissue culture plates, and allowed to grow for 48-72 h before transferring them into 96-well plates. Cells were allowed to attach and grow for 48 h in 96-well plates after which they were treated with either control (DMSO) or drug in triplicate/quadruplicate. Cells were incubated with the compounds for 72 h. Cells were treated with MTS reagent before reading the plate in a Dynamax plate reader for determining the cell number. The fifty percent growth inhibition values (GI50 values) were calculated for the compounds against all the three cell lines.

Experiment [3] has as its system 1A9/Ptx22 (Ala364 −> Thr) β-tubulin mutant cells. The description is as above. Format: cell-based, human. The following applies: for fold-resistance: 1A9/Ptx22 versus parental 1A9. The protocol: as §1, §2
[4] abbreviates: test agent 4 μM, radiolabel 4.0 μM, 37° C.
[5] abbreviates: Homo sapiens, 1A9/ptx-10, 72 h, read-out: GI50 ± S.D., 1A9/Ptx10 (Phe270 −> Val), 72 h incubation.
[6] abbreviates: Homo sapiens, 1A9/ptx-22, 72 h, read-out: GI50 ± S.D., 1A9/Ptx22 (Ala364 −> Thr), 72 h incubation.

Read-outs that look alike come from different tables or passages of the source.

In the case of `C=C/C=C\[C@H](C)[C@@H]1OC(=O)/C=C\C=C\[C@@H](C)[C@@H](O)C[C@H](O)/C=C\[C@H](C)[C@H](O)[C@@H](C)C[C@@H](C)CC[C@@H](O)[C@@H]1C` [dictyostatin-1, (8S,10S,14R,20R)-Tetrahydroxy-(7R,13S,15S,17S,21S)-pentamethyl-(22S)-((1S)-methylpenta-2,4-dienyl)oxacyclodocosa-3,5,11-trien-2-one, reference compound], in experiment [1] (setting [4]), the “Percent inhibition of radiolabel from microtubules, [3H]Discodermolide” value is 40 ± 3 (3) %; the “Percent inhibition of radiolabel from microtubules, [3H]Paclitaxel” value (“Percent inhibition … [3H]Paclitaxel” below) is reported as 75 ± 5 (3) %; the “Percent inhibition of radiolabel from microtubules, [14C]Epothilone B” value is listed as 88 ± 1 (3) %. Besides, in the experiment on HeLa cells, the “Minimum detectable cellular change, Phosphohistone H3” value was 9.6 ± 2.4 (4); the “Minimum detectable cellular change, Tubulin polymer intensity” value is on record as 7.4 ± 2.5 (4); the “Minimum detectable cellular change, Nuclear condensation” value is recorded as 32.7 ± 11.7 (3). For the same compound, the fold-resistance in experiment [2] came out at 4.6 fold. In addition, in experiment [2] (setting [5]), the GI50 amounted to 3.2 ± 2.4 nM. In addition, the fold-resistance in experiment [3] was 1.9 fold. Also, the GI50 in experiment [3] (setting [6]) stood at 1.3 ± 1 nM.
Regarding `C=CC=CC(C)C1OC(=O)C=CC=CC(C)C(O)CC(O)C=CC(C)C(O)C(C)CCCCC(O)C1C` [Compound 79, (8S,10S,14R,20R)-Tetrahydroxy-(7R,13S,15S,21S)-tetramethyl-(22S)-((1S)-methylpenta-2,4-dienyl)-oxacyclodocosa-3,5,11-trien-2-one], the “potency relative to 1 in inhibiting the binding of radiolabeled paclitaxel to microtubules” value in experiment [1] is listed as “ca. 60%”. For the same compound, the “Percent inhibition … [3H]Paclitaxel” value in experiment [1] (setting [4]) is listed as 48 ± 3 (3) %. Besides, the “Minimum detectable cellular change, Phosphohistone H3” value in the experiment on HeLa cells was 34.4 ± 10.5 (4). In addition, in the experiment on HeLa cells, the “Minimum detectable cellular change, Tubulin polymer intensity” value is 26.9 ± 2.9 (4). In addition, the “Minimum detectable cellular change, Nuclear condensation” value in the experiment on HeLa cells was 71.5 ± 18.0 (4). The results for the fold-resistance in experiment [2] and in experiment [3] were 1146 fold and 14 fold, respectively. Moreover, the GI50 stood at 470 ± 70 nM in experiment [2] (setting [5]) and 5.6 ± 4.7 nM in experiment [3] (setting [6]).
For the compound `C=C/C=C\[C@H](C)[C@H](O)[C@@H](C)[C@H](O)CC[C@H](C)C[C@H](C)[C@@H](O)[C@@H](C)/C=C\[C@@H](O)C[C@H](O)[C@H](C)/C=C/C=C\C(=O)OC` [Compound 50, (2Z,4E,6R,7S,9S,10Z,12S,13R,14S,16S,19R,20S,21S,22S,23Z)-Methyl-7,9,13,19,21-penta-hydroxy-6,12,14,16,20,22-hexamethylhexacosa-2,4,10,23,25-pentaenoate], the “potency relative to 1 in inhibiting the binding of radiolabeled paclitaxel to microtubules” value in experiment [1] is on record as “ca. 60%”. Besides, the “Percent inhibition … [3H]Paclitaxel” value in experiment [1] (setting [4]) is recorded as 42 ± 1 (3) %. In the experiment with HeLa cells, the “Minimum detectable cellular change, Phosphohistone H3” value is 149 ± 23.6 (4); the “Minimum detectable cellular change, Tubulin polymer intensity” value was 219 ± 36 (4); the “Minimum detectable cellular change, Nuclear condensation” value was 479 ± 182 (4). Further, the fold-resistance in experiment [2] was found to be 1.4 fold. Also, in experiment [2] (setting [5]), the GI50 amounted to 79 ± 13 nM. The fold-resistance in experiment [3] is 1.5 fold. Moreover, in experiment [3] (setting [6]), the GI50 was 85 ± 2 nM.
Consider `C=CC=CC(C)C1OC(=O)C=CC=CC(C)C(O)CC(O)C=CC(C)C(O)C(C)CC(C)CCC(O)C1C` [Compound 59, (8S,10S,14R,20S)-Tetrahydroxy-(7R,13S,15S,17S,21s)-pentamethyl-(22S)-((1S)-methylpenta-2,4-dienyl)-oxacyclodocosa-3,5,11-trien-2-one], for which, in experiment [1] (setting [4]), the “Percent inhibition … [3H]Paclitaxel” value was 7 ± 2 (3) %. In addition, in the experiment on HeLa cells, the “Minimum detectable cellular change, Phosphohistone H3” value was 261 ± 91 (4); the “Minimum detectable cellular change, Tubulin polymer intensity” value is 284 ± 108 (4); the “Minimum detectable cellular change, Nuclear condensation” value is 363 ± 146 (2). The fold-resistance in experiment [2] was 5.7 fold. Moreover, the GI50 in experiment [2] (read-out: GI50 ± S.D., 1A9/Ptx10 (Phe270 −> Val), 72 h incubation) was determined as 120 ± 60 nM. Moreover, in experiment [3], the fold-resistance was 2.0 fold. In experiment [3] (read-out: GI50 ± S.D., 1A9/Ptx22 (Ala364 −> Thr), 72 h incubation), the GI50 turned out to be 43 ± 12 nM.
For `C=C/C=C\[C@H](C)[C@H](OC(N)=O)[C@@H](C)[C@H](O)[C@@H](C)C/C(C)=C\[C@H](C)[C@@H](O)[C@@H](C)/C=C\[C@@H](O)C[C@@H]1OC(=O)[C@H](C)[C@@H](O)[C@H]1C` [discodermolide, reference compound], in experiment [1] (setting [4]), the “Percent inhibition … [3H]Paclitaxel” value is listed as 76 ± 6 (4) % and the “Percent inhibition of radiolabel from microtubules, [14C]Epothilone B” value is listed as 90 ± 1 (3) %. Also, in the experiment on HeLa cells, the “Minimum detectable cellular change, Phosphohistone H3” value is on record as 38.4 ± 21.9 (2); the “Minimum detectable cellular change, Tubulin polymer intensity” value is given as 64.6 ± 0.0 (2); the “Minimum detectable cellular change, Nuclear condensation” value was 62.5 (1). Further, the fold-resistance in experiment [2] was 3.6 fold. In experiment [2] (setting [5]), the GI50 was 6.2 ± 3.6 nM. For the same compound, in experiment [3], the fold-resistance was found to be 4.1 fold. Moreover, the GI50 in experiment [3] (setting [6]) was determined as 7 ± 8.4 nM.

The values above are taken from patent US7321046B2, “Analogs of dictyostatin, intermediates therefor and methods of synthesis thereof” (University of Pittsburgh, priority 2002, dated 2008).
